Assay results reported in patent US20260315609A1, “MIXED VASOPRESSIN RECEPTOR AGONIST-ANTAGONIST FOR TREATING END-STAGE LIVER DISEASE AND COMPLICATIONS ASSOCIATED THEREOF” (FERRING B.V., priority 2022, published 2026).
Read-outs that look alike come from different tables or passages of the source. Starred links: 1 amine or outer side, 2 acyl side, 3 side chain; linkers in the order of their positions; H or OH if unused. Positions of bridges follow the written chain, without caps; N, C: chain ends. Non-standard residues stand in square brackets, D forms with d. Residues, ends and D or L forms follow the SMILES beside them. Chains are numbered I, II in the order given. *: point of attachment. isoGln = NC(=O)[C@H](CCC(=O)[*:2])N[*:1]; εLys = N[C@@H](CCCCN[*:1])C(=O)[*:2]; Dab = NCC[C@H](N)C(=O)O; PhAc = O=C(Cc1ccccc1)*

How the values were obtained:
vasopressin V1a receptor = assay: Pharmacodynamics (blood pressure, MAP, pulse rate, peripheral blood flow, cardiac output, urine volume) in healthy subjects; type: in vivo, human
Procedure: In some embodiments, MAP is calculated from measurements of systolic blood pressure and diastolic blood pressure. In some embodiments, MAP is calculated when taking into account the pressure during a single cardiac cycle. In some embodiments, MAP is ⅓ (systolic blood pressure−diastolic blood pressure)+diastolic blood pressure.
(§1) In some instances, endpoints of the study were: vital signs (e.g., supine blood pressure, pulse, and body temperature), electrocardiogram (ECG) (e.g., intervals, rhythm, and morphology), cardiac function (e.g., cardiac output using echocardiography), peripheral blood flow/tissue perfusion (e.g., by skin color), venous blood gases (e.g., lactate), urinary output, clinical chemistry, hematology, hemostasis, and urinalysis, adverse events (AEs) (e.g., type, frequency, and intensity), pharmacokinetics (e.g., AUC, AUCt, AUCτ, % Extrap AUC, Cmax, tmax, CL, Vz, t1/2, MRT, Vss, F, Ae, and CLR), and metabolite pattern in plasma and urine.

[1] = Effect of buffer concentration on bioavailability and M1 formation after SC (bolus) injection in rats; type: in vivo, rat; details: s.c. (bolus)
[2] = system: CCl4-induced rat model of cirrhosis and ascites; assay: CCl4-induced cirrhosis and ascites rats, cohort 3 (single IV bolus), hemodynamics and serum aldosterone; type: in vivo; details: 100 μg/kg IV
Procedure: Animals: 90 male Wistar rats (Charles River Laboratories, Espana S.A) weighing 200-220 grams at the time of receipt were subjected to a cirrhosis induction program; high dose CCl4 was administered by inhalation twice weekly (Monday and Friday) and phenobarbital (0.3 g/L) was added to drinking water. In some instances, liver damage in this model is caused by hepatotoxic CCl4 metabolites produced in the liver. In some instances, phenobarbital induction of the microsomal enzyme oxidizing system exaggerates the intensity of the hepatic necrosis. […] Animals were allowed free access to food and water throughout the study.
The study consisted of 3 treatment cohorts, as detailed in Table 10. Animals developing and maintaining ascites for 2 weeks were randomly assigned to treatment groups. Ringer Braun saline solution was used as vehicle. IV bolus were administered via femoral veins.
Cohort 3: Animals were anesthetized and the left femoral artery and vein catheterized. The femoral artery catheter was connected to a transducer for mean arterial pressure (MAP) measurements. The right jugular vein was isolated and a catheter placed in the right atrium; a thermocouple was advanced through the aortic arch via left carotid approach to monitor the intraarterial temperature and cardiac output (CO). MAP and CO were measured and recorded in a multichannel system (Powerlab). CO was measured by thermodilution following the administration of a 200 μL/animal bolus of Ringer solution (20-23° C.) into the right atrium using a spring-loaded Hamilton syringe. A midline abdominal incision (2 cm) was created and the portal vein cannulated through the ileocolic vein to measure portal pressure (PP). Constant infusion (2 mL/hr) of Ringer solution was given through the femoral vein. After 30 minutes of infusion, baseline 30 minute values for PP, MAP, CO, and systemic vascular resistance (SVR) were recorded. In the middle of the 30 minute data collection, a blood sample (0.8 mL) was obtained via the femoral artery catheter for serum aldosterone measurements. […] Five 30 minute data collections were recorded for PP, MAP, CO, and SVR over 150 minutes, with blood samples collected in the middle of each 30 minute data collection. Following blood sampling, packed cells were reconstituted with Ringer solution and reinjected over a period of 3 minutes.

[3] = PK of Compound 1, once daily subcutaneous (bolus) injection for 5 days in healthy men and women (Period 2); type: in vivo, human
From the text: as §1

[4] = Excretion of Compound 1 in urine of healthy subjects; type: in vivo, human; details: for dose excreted: human, urine, read-out: fraction of dose excreted unchanged in urine
Procedure: Urinalysis was performed locally by means of a dip-stick test. […] In case any result of the dipstick was abnormal and clinically significant, a new urine test was to be performed. If the abnormal result was confirmed, further examination could be initiated at the discretion of the Investigator. Clinically significant abnormal findings were reported as AEs. The metabolite pattern of Compound 1 in plasma and urine were measured.
as §1

[5] = s.c. 0.1 mg, 1st administration
[6] = s.c. 0.1 mg, 5th administration
[7] = s.c. 0.3 mg, 1st administration
[8] = s.c. 0.3 mg, 5th administration

CC[C@H](C)[C@@H]1NC(=O)[C@H](Cc2ccccc2)NC(=O)[C@@H](N)CSSC[C@@H](C(=O)N2CCC[C@H]2C(=O)N[C@@H](CCNC(=O)[C@@H](N)CCCCNC(=O)[C@H](CCCCNC(C)=O)NC(=O)CC[C@H](NC(=O)[C@H](CCCNC(=N)N)NC(=O)[C@@H]2CCCN2C(=O)[C@H](C)NC(=O)[C@H](CC(N)=O)NC(=O)[C@H](CCC(N)=O)NC(=O)[C@H](Cc2ccccc2)NC(=O)[C@@H](Cc2ccc(OC)cc2)NC(=O)Cc2ccccc2)C(N)=O)C(=O)NCC(N)=O)NC(=O)[C@H](CC(N)=O)NC(=O)[C@H](CCC(N)=O)NC1=O [Compound 1, Glycinamide, L-cysteinyl-L-phenylalanyl-L-isoleucyl-L-glutaminyl-L-asparaginyl-L-cysteinyl-L-prolyl-N4-(phenylacetyl-O-methyl-D-tyrosyl-L-phenylalanyl-L-glutaminyl-L-asparaginyl-L-alanyl-L-prolyl-L-arginyl-L-isoglutamyl-N5-acetyl-L-lysyl-L-ε-lysyl)-L-2,4-diaminobutyryl-, cyclic (1→6)-disulfide] (I: H-CFIQNCP[Dab]G-NH2 / II: PhAc-[dY](Me)FQNAPR[isoGln]K(Ac)[εLys]; disulfide I:1-I:6; amide I:8-II:C)
reduction in cardiac output, mean (vasopressin V1a receptor; 0.9 mg i.v., echocardiography): 3%-12 | individual decreases in cardiac output (vasopressin V1a receptor; any dose, i.v. and s.c., echocardiography): 20-25% | AE of moderate decreased cardiac output (vasopressin V1a receptor; i.v. 0.1 mg): One | subjects with hyperemia (vasopressin V1a receptor; i.v. 0.45 mg, 30 and 90 minutes): 1 subject | urinary volume (vasopressin V1a receptor; i.v. and s.c.): no apparent dose related trends or changes | cardiac output versus placebo (vasopressin V1a receptor; i.v., except 0.1 mg group): decreased | subjects with pallor (vasopressin V1a receptor; i.v., mainly 0.45, 0.6 and 0.9 mg): 18 subjects | cardiac output (vasopressin V1a receptor; s.c. 0.1 and 0.3 mg): slight reduction | subjects with pallor (vasopressin V1a receptor; s.c. 0.1 and 0.3 mg, after 1st dose): About 30% | bioavailability ([1]; about 10 mM buffer): about 13% | bioavailability ([1]; about 100 mM buffer): about 37% | Cardiac output - portal pressure ([2]; 0 min): 173 mL/min | Mean Arterial Pressure ([2]; 0 min): 79 mmHg | Systemic Vascular Resistance ([2]; 0 min): 0.49 mmHg * min/mL | Cardiac output - portal pressure ([2]; 30 min): 178 mL/min | Mean Arterial Pressure ([2]; 30 min): 84 mmHg | Portal Pressure ([2]; 30 min): 13.9 mmHg | Systemic Vascular Resistance ([2]; 30 min): 0.54 mmHg * min/mL | Cardiac output - portal pressure ([2]; 60 min): 177 mL/min | Mean Arterial Pressure ([2]; 60 min): 91 mmHg | Portal Pressure ([2]; 60 min): 12.8 mmHg | Systemic Vascular Resistance ([2]; 60 min): 0.54 mmHg * min/mL | Cardiac output - portal pressure ([2]; 90 min): 158 mL/min | Mean Arterial Pressure ([2]; 90 min): 98 mmHg | Portal Pressure ([2]; 90 min): 11.5 mmHg | Systemic Vascular Resistance ([2]; 90 min): 0.71 mmHg * min/mL | Cardiac output - portal pressure ([2]; 120 min): 140 mL/min | Mean Arterial Pressure ([2]; 120 min): 93 mmHg | Portal Pressure ([2]; 120 min): 10.6 mmHg | Systemic Vascular Resistance ([2]; 120 min): 0.72 mmHg * min/mL | Cardiac output - portal pressure ([2]; 150 min): 139 mL/min | Mean Arterial Pressure ([2]; 150 min): 92 mmHg | Portal Pressure ([2]; 150 min): 9.7 mmHg | Systemic Vascular Resistance ([2]; 150 min): 0.74 mmHg * min/mL | reduction in serum aldosterone ([2]; end of study): greater than 50% | Serum Aldosterone ([2]; end of study (vehicle 786)): 264 ng/dL | bioavailability ([3]; repeated s.c. injections, versus i.v.): about 18% | terminal half-life (summary) ([3]; s.c.): about 1 hours | tmax (summary) ([3]; s.c.): about 0.3 hours | AUC, geometric mean [3, 5]: 0.87 (22) h*ng/mL | AUC, mean [3, 5]: 0.88 (0.19) h*ng/mL | Cmax, geometric mean [3, 5]: 0.43 (41) ng/mL | Cmax, mean [3, 5]: 0.46 (0.17) ng/mL | tmax, mean [3, 5]: 0.3 (0.1) h | AUC, geometric mean [3, 6]: 0.70 (3) h*ng/mL | AUC, mean [3, 6]: 0.70 (0.02) h*ng/mL | Cmax, geometric mean [3, 6]: 0.42 (28) ng/mL | Cmax, mean [3, 6]: 0.43 (0.14) ng/mL | tmax, mean [3, 6]: 0.3 (0.1) h | AUC, geometric mean [3, 7]: 6.40 (109) h*ng/mL | AUC, mean [3, 7]: 7.90 (5.01) h*ng/mL | Cmax, geometric mean [3, 7]: 2.45 (98) ng/mL | Cmax, mean [3, 7]: 2.99 (2.03) ng/mL | t1/2, mean [3, 7]: 1.6 (0.7) h | tmax, mean [3, 7]: 0.4 (0.5) h | AUC, geometric mean [3, 8]: 2.77 (113) h*ng/mL | AUC, mean [3, 8]: 3.36 (2.69) h*ng/mL | Cmax, geometric mean [3, 8]: 1.42 (58) ng/mL | Cmax, mean [3, 8]: 1.52 (0.79) ng/mL | tmax, mean [3, 8]: 0.4 (0.2) h | tmax, median [3, 8]: 24 min | median tmax ([3]; s.c. 0.1 and 0.3 mg, 1st and 5th administrations): 18 to 24 min | dose excreted ([4]; iv): < 10% | dose excreted ([4]; sc): < 5% | amount excreted in urine, 4-8 hours ([4]; i.v. 0.1 mg): about 3 μg | amount excreted in urine, 4-8 hours ([4]; i.v. 0.3 mg): ~9 µg | amount excreted in urine, 4-8 hours ([4]; i.v. 0.45 mg): ~16 µg | amount excreted in urine, 4-8 hours ([4]; i.v. 0.6 mg): ~24 µg | amount excreted in urine, 4-8 hours ([4]; i.v. 0.9 mg): ~37 µg | amount excreted in urine, first 4 hours [4, 5]: about 2 μg | amount excreted in urine, first 4 hours [4, 6]: about 0.3 μg | amount excreted in urine, first 4 hours [4, 7]: ~3 µg | amount excreted in urine, first 4 hours [4, 8]: ~1.5 µg
